Laboratory results as given in patent US20130331381A1, “Treatment of Cancer WIth Dopamine Receptor Antagonists” (McMaster University, priority 2011, published 2013).
Structures can show the parent of a compound that is named as a salt. Where two headings read alike, the source gives them in different places.

How the values were obtained:
patient AML cells = test: CD11b granulocytic maturation in patient AML cells; format: cell-based, human; conditions: 10 μM, up to 96 hours
neoplastic hPSCs = test: TaqMan Low-Density Array-qPCR of differentiation genes; format: cell-based, human; conditions: thioridazine-treated neoplastic hPSCs
Method: Cells in specific conditions were collected and RNA was extracted by using RNeasy kit (Qiagen), complementary DNA (cDNA) generation by using SuperScript III® cDNA synthesis kit (Invitrogen), pre-amplification and TaqMan® array reaction (Applied Biosystems) were performed according to manufacturer's instructions. The gene expression profile for each treated cell population was analyzed using TaqMan® Stem Cell Pluripotency Array Card on ViiA 7 Real-Time PCR System (Applied Biosystems). Each reaction sample was dispensed into loading wells on the array card and centrifuged twice at 336×g for 1 min each time, sealed, and placed in the thermal cycler. The following cycling conditions were used for all array card applications: 45° C. for 10 min, 94° C. for 10 min, and 40 cycles of 94° C. for 30 s followed by 60° C. for min. Array data were normalized to 18S RNA and GAPDH and comparisons were performed using data analysis 2.0 software (Applied Biosystems).

[1] = test system: patient AML samples, DR+ and DR- subfractions; test: Blast-CFU content of DR+ and DR- sorted patient AML samples; format: cell-based, human; conditions: 24 h treatment
Excerpt: (§1) Due to the bioavailability of dopamine in fetal bovine serum (FBS) (Little et al., 2002), serum-free conditions were employed to assess the role of DRs in AML. […] DR D2-family and D1-family exert opposing actions on intracellular signaling leading to differential biological effects (Self et al., 1996).

v1H9-Oct4-GFP cells = test: Chemical screen for differentiation of neoplastic hPSC (GFP and Hoechst); format: cell-based; conditions: Homo sapiens; for activity at 10 µM: 72 h, read-out: Hoechst % RA (residual activity)
Method: Chemical screens involved v1H9-Oct4-GFP cells seeded at 5,000 cells per well in mouse embryonic fibroblast conditioned media (MEFCM) supplemented with 8 ng/ml bFGF. 24 hours later the media was exchanged for MEFCM with compounds at 10 μM and 0.1% DMSO, 0.1% DMSO (−BMP4) or 100 ng/ml of BMP4 and 0.1% DMSO (+BMP4) for 48 hours before being exchanged with fresh media with compound for a further 24 h (total compound treatment time 72 h) prior to being fixed and prepared for automated imaging and plate reader analysis. Confluent H9 & fibroblast-derived iPSC were seeded at 10,000 cells per well in MEFCM supplemented with 8 ng/ml bFGF. 24 hours later the cells were treated with compounds at 10 μM and 0.1% DMSO, 0.1% DMSO (−BMP4) or 100 ng/ml of BMP4 and 0.1% DMSO (+BMP4). Fresh MEFCM supplemented with compounds was exchanged daily for 5 days. On day 5, hPSC's were fixed and prepared for automated imaging and plate reader analysis. See supplementary experimental procedures for further details.
Cells were fixed in 2% paraformaldehyde and stained with 10 μg/mL Hoechst 33342 (Invitrogen) with a Combi Multidrop Dispenser (Thermo). For experiments that involved Oct4 immunocytochemistry, a monoclonal antibody for Oct4 (BD) was used along with an Alexa-Fluor-647 secondary (Invitrogen). Immunocytochemical staining was performed by a Janus automated liquid handler (Perkin Elmer). Images were acquired at 10×N.A with an Arrayscan HCS VTI Reader (Cellomics) by means of epi-fluorescence illumination and standard filter sets.
Image analysis was performed using custom scripts in Acapella software (Perkin Elmer). Nuclear objects were segmented from the Hoechst signal. For neoplastic cell lines, object intensity analysis was performed on GFP positive cells only. For normal cell lines, the fraction of Alexa-Fluor-647-positive cells was quantified. Images and well-level data were stored and analysed in a Columbus Database (Perkin Elmer) and further data analysis, compounds registration and hit identification in ActivityBase (IDBS).
These Collections have been previously scrutinized in numerous other mammalian cell lines (Diallo et al., 2010; Shoemaker, 2006).

[2] = test system: CD14+ cells in primary AML; test: Frequency of CD14+ cells in primary AML by flow cytometry; format: cell-based, human; conditions: 10 μM, 72 h; control 100%
primary AML cells = test: Methylcellulose blast-CFU assay, primary AML cells; format: cell-based, human; conditions: for AML-blast CFU potential: salinomycin at 1 μM and 10 μM, 24 h treatment, 5 AML patient samples
Method: (§3) Normal HSCs and progenitors were sourced from either mobilized peripheral blood or umbilical cord blood of health patients. Primary AML cells were taken from patients diagnosed with AML. Both normal HSCs and primary AML cells were cultured under standard in vitro methocellulose assay conditions (see http://www.stemcell.com/en/Products/All-Products/MethoCult-H4434-Classic.aspx as well as Clinton Campbell et al. The human stem cell hierarchy is defined by a functional dependence on Mcl-1 for self-renewal capacity. Blood 116 (9) 1433-1442 (Jun. 4, 2010), hereby incorporated by reference) for at least 14 days before the number of colonies were recorded.
(§4) AML patient blasts were cultured in IMDM supplemented with 5% heated inactivated FBS (HyClone), 5 ng/mL IL3 (R&D systems), 5×10^−5 M β-mercaptoethanol (Sigma) and BIT (StemCell Technologies). HSC media contained IMDM supplemented with 1% BSA (Sigma), 100 ng/mL SCF (R&D systems), 100 ng/mL Flt-3L (R&D systems) and 20 ng/mL TPO (R&D systems). Patient HSPC and AML samples were treated with compound or DMSO-vehicle (0.1%) for 24 h prior to CFU plating or xenotransplantation studies.
(§5) AML patient or CB lin− cells were cultured 24 hours in the presence of compound or DMSO-vehicle (0.1%) control. AML cells were plated at 50 000 cells/mL in Methocult GF H4434 (Stem Cell Technologies). CB lin− cells were plated at 1000 cells/mL in Methocult GF H4434 (Stem Cell Technologies). Colonies were scored after 14 days of culture using standard morphological criteria.

[3] = test system: normal HSCs and progenitors (CB lin-)
Method: as §3, §4, §5

[4] = test system: HL-60, OCI-AML2 and OCI-AML3; test: Cytotoxicity of DR agonists and antagonists against AML cell lines; format: cell-based, human; conditions: CLOZ at higher concentrations; FIG. 6
Method: (§2) All three lines are leukemic cell lines. HL-60 was derived from promyelocytic AML whereas MV 4-11 and OCI-AML3 are representative of AML. Each compound was incubated with the cells for 72 h. The control was DMSO (ie the vehicle used for the compound) for 72 h. Each condition had three replicates.
A series of dopamine receptor agonists, D3-antagonists, DR1 & 5-antagonists and multi-receptor antagonists were tested for cytotoxicity against three AML cell lines HL-60, OCI-AML2 and OCI-AML3. Testing was performed as set out in Example 1.

AML LSCs = test: Xenotransplantation of compound-treated AML cells; format: in vivo, human; conditions: AML cells treated at 10 μM, NSG mice
Method: NOD.Cg-Prkdc^scid II2rg^tm1Wjl/SzJ adult mice (NSG) were sub-lethally irradiated with 315 rads 24 hours prior transplantation. 0.8−1.0×10^7 AML MNCs or 1.5−1.8×10^5 CB lin− hematopoietic cells treated with compound or DMSO-vehicle for 24 h were injected via tail vein (IV). After 6-10 weeks, animals were culled, and the BM and spleen were analyzed for the presence of human cells by flow cytometry (LSRII, BD) and data was analyzed using FlowJo software (Tree Star Inc). For secondary HSPC transplants, equal number of engrafted human cells from CB lin− transplants were injected IV in adult irradiated NSG mice as described for primary transplants.

[5] = test system: normal HSCs and progenitors (CB lin-); test: Methylcellulose colony forming assay, normal HSCs / HSPCs; conditions: 10 μM, at least 14 days; DMSO control about 100
Method: as §3, §4, §5

[6] = test system: neoplastic hPSCs (v1H9-Oct4-GFP); test: Flow cytometry of Oct4 in neoplastic hPSCs; format: cell-based, human; conditions: FIG. 10b
AML-OCI2 and AML-OCI3 = test: Volumetric cell counting of AML cell lines; format: cell-based, human; conditions: 72 h, serum-free conditions
Method: The number of AML-OCI2 and AML-OCI3 cells present after 72 h treatment with DR antagonists (FIG. 16b) and agonist (FIG. 16c-d) were counted by measuring the number of events within a fixed volume following the grating strategy defined by forward scatter and side scatter clustering, 7AAD− and Hoechst+.
as §1

[7] = test system: HL-60, MV4-11 and OCI-AML3; test: Cytotoxicity to leukemic cell lines (normalized cell number, 72 h); format: cell-based, human; conditions: for normalized cell number / toxicity: 10 μM
Method: as §2
The dopamine receptor antagonist and phenothiazine-related compound chlorpromazine was also investigated for effects on the AML cell lines HL-60, MV4-11 and OCI-AML3. Testing was performed as set out in Example 1.

With `CSc1ccc2c(c1)N(CCC1CCCCN1C)c1ccccc1S2` (racemic) [thioridazine, 10-{2-[(RS)-1-Methylpiperidin-2-yl]ethyl}-2-methylsulfanylphenothiazine] the “frequency of CD11b granulocytic AML-blast cells” value (patient AML cells) was “marked increase”, the upregulated differentiation-associated genes (neoplastic hPSCs) was 21 of 50 and the “blast-CFU generation, DR+ subfraction” value [1] was “reduction”. The “blast-CFU generation, DR- subfraction” value [1] was “no reduction”, the activity at 10 µM (v1H9-Oct4-GFP cells; 10 μM) was greater than 30% and the “normalized frequency of CD14+ cells” value [2] was 20%. For the same compound, the “number of CFU colonies, AML cells” value (primary AML cells; 10 μM, at least 14 days, control about 22) was 1.6 blast colonies, the “AML-blast CFU potential” value (primary AML cells) was “reduced” and the “HSPC CFU potential” value [3] was “little effect”. The “cytotoxicity of AML cell lines” value [4] was “significant effect”, the “AML LSC capacity (CD45+ CD33+ blast engraftment)” value (AML LSCs) was “significantly reduce” and the “colony forming potential of normal HSCs, total colonies” value [5] was “about 66 total colonies”. The “cell number, neoplastic hPSCs” value [6] was “reductions”, the “levels of Oct4 in neoplastic hPSCs” value [6] was “reductions” and the “number of AML cells” value (AML-OCI2 and AML-OCI3) was “reduced”. The normalized cell number ([7]; 0.1 μM and 1 μM) was “little effect” and the “normalized cell number / toxicity” value [7] was “almost zero”.
`Br.CCCN(CCC)[C@@H]1CCc2ccc(O)cc2C1` [70H-DPAT, R(+)-7-Hydroxy-DPAT hydrobromide] was tested, and the “number of AML cells” value (AML-OCI2 and AML-OCI3) was “increased”.
For `Oc1cc2c(cc1O)[C@@H](c1ccccc1)CNCC2` [SKF38393, (R)-(+)-SKF-38393 hydrochloride], the “number of AML cells” value (AML-OCI2 and AML-OCI3) was “significant reduction”.
For `Cn1cnc([N+](=O)[O-])c1Sc1ncnc2nc[nH]c12` [azathioprine], the activity at 10 µM (v1H9-Oct4-GFP cells; 10 μM) was greater than 30%.
In the case of `CN(C)CCCN1c2ccccc2Sc2ccc(Cl)cc21` [chlorpromazine, Chlorpromazine hydrochloride], the “cytotoxicity of AML cell lines” value [4] is reported as “significant effect”, the “number of AML cells” value (AML-OCI2 and AML-OCI3) is reported as “reduced” and the “normalized cell number / toxicity” value [7] is reported as “toxic”.
In the case of `CN1CCN(C2=Nc3cc(Cl)ccc3Nc3ccccc32)CC1` [clozapine, Clozapine], the “cytotoxicity of AML cell lines” value [4] is reported as “significant effect”.
For `CNC1CC(c2ccc(Cl)c(Cl)c2)c2ccccc21` (stereo not shown) [indatraline], the activity at 10 µM (v1H9-Oct4-GFP cells) was greater than 30%.
`OC(c1cc(C(F)(F)F)nc2c(C(F)(F)F)cccc12)C1CCCCN1` (stereo not shown) [mefloquine] was tested, and the activity at 10 µM (v1H9-Oct4-GFP cells; 10 μM) was greater than 30%, the EC50 (v1H9-Oct4-GFP cells; dose response, FIG. 9g, read-out: EC50, reduction in GFP intensity) was less than 10 µM and the “AML-blast CFU potential” value (primary AML cells) was “reduced”. The “HSPC CFU potential” value [3] was “little effect”, the “AML LSC capacity (CD45+ CD33+ blast engraftment)” value (AML LSCs) was “ineffective” and the “cell number, neoplastic hPSCs” value [6] was “reductions”. For the same compound, the “levels of Oct4 in neoplastic hPSCs” value [6] was “reductions”.
For `CC[C@@H](C(=O)[C@@H](C)[C@@H](O)[C@H](C)[C@@H]1O[C@@H]([C@@H](CC)C(=O)O)CC[C@@H]1C)[C@H]1O[C@]2(C=C[C@@H](O)[C@]3(CC[C@@](C)([C@H]4CC[C@](O)(CC)[C@H](C)O4)O3)O2)[C@H](C)C[C@@H]1C` [salinomycin], the “AML-blast CFU potential” value (primary AML cells) was “reduced” and the “HSPC CFU potential” value [3] was “reduced”.
